# What was measured:
# Format in all cases: binding
# 14-3-3σ/TAZ complex [1] = biological target: T1, 14-3-3σ/TAZ complex (Homo sapiens, UniProt P31947+Q9GZV5); assay: STD NMR dose response
# 14-3-3/ABL1 complex = 14-3-3/ABL1 complex (Homo sapiens, UniProt P00519+P31947); assay: STD NMR dose response
# 14-3-3σ/TAZ complex [2] = biological target: T1, 14-3-3σ/TAZ complex; assay: STD NMR; settings: 300 μM fragment, 10 μM 14-3-3σ, 100 μM TAZ peptide, relative to apo-14-3-3σ
# T1 sequence (P31947 whole entry, other chains not shown): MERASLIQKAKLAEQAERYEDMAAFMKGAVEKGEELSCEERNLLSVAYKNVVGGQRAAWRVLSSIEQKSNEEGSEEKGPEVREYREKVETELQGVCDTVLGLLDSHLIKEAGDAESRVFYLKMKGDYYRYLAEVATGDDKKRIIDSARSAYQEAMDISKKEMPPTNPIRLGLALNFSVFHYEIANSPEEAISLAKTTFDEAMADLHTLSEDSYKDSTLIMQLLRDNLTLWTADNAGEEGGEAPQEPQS
# 14-3-3/ABL1 complex, sequence (P31947 whole entry, other chains not shown, the tested form may be a part): as the sequence (P31947 whole entry, other chains not shown) above
EC50 (14-3-3σ/TAZ complex [1]) [µM],EC50 (14-3-3/ABL1 complex) [µM],fold STD signal (I+peptide / I-peptide) (14-3-3σ/TAZ complex [2]) [fold],Structure (SMILES)
2300 ± 300,–,–,N=C(N)c1cc2ccccc2o1 [F9]
1800 ± 400,8700 ± 400,–,COC(=O)c1cccc(C(=N)N)c1 [F5]
–,–,1.9,CCN1CCN(c2cc(C(=N)N)ccn2)CC1 [F4]
